Data set [1] deals with mice injected with BoNT/A. The conditions noted are these: mouse, in vivo.
In data set [2] the test system is EDL nerve muscle preparations. More on the design: species or system mouse.
Data set [3] relates to mice injected with BoNT/A. The conditions noted are these: mouse, in vivo. This is another data set of the same source.
The conditions of data set [4]: mouse, in vivo.
In data set [5] the test system is mice injected with BoNT/A. The following applies: mouse, in vivo. This is another data set of the same source.
The subject of data set [6] is Neuro 2a cells. Format: cell-based, mouse.
The next data set concerns TRPV1. Set-up: species or system mouse.
The subject of the next data set is motor nerve terminals. Set-up: species or system mouse.
The test system of data set [7] is Neuro 2a cells. It counts as cell-based, mouse. This is another data set of the same source.
The test system of data set [8] is mice injected with BoNT/A. The conditions noted are these: mouse, in vivo. This is another data set of the same source.
Data set [9] concerns mice injected with BoNT/A.
In data set [10] the test system is EDL nerve muscle preparations.

This note sets out measurements from patent US20100303932A1 (priority 2009, published 2010).

“And” between values parts separate entries of the source, which are not always exact repeats. Equal values may be shown once.

As for `Oc1cc2c(cc1O)CN(C(=S)NCCc1ccc(Cl)cc1)CCC2` [capsazepine], in data set [1], the “toe spread 24 hours post-capsaicin” value is recorded as “unable to spread toes”. In data set [2], the “EPC amplitude or time course” value is reported as “no effect”, the “amplitude of endplate currents (EPCs)” value is recorded as “equivalent to that observed after BoNT/A alone” and the “inhibitory effect of BoNT/A on mean EPC amplitude” value is “the protective action of capsaicin was abolished”.

Consider `COc1cc(CNC(=O)CCCC/C=C/C(C)C)ccc1O` [capsaicin, trans 8-methyl-N-vanillyl-6-noneamide], for which, in data set [1], the “Toe spread reflex (TSR)” value is on record as “remained completely normal”, the “Toe spread reflex (TSR) at times later than 24 hours after BoNT/A” value is reported as “continued unaltered” and the “Toe spread reflex (TSR) within 24 hours” value is “remained normal”. Besides, the “walk time on rotating rod” value in data set [3] is listed as “remained equivalent to non-treated controls”. In addition, in data set [4], the “Body Weight (gram) ± SEM” value was 32.62 ± 0.56 gram and 33.55 ± 0.51 gram and 38.39 ± 0.93 gram; the “loss of body mass after BoNT/A” value is reported as “reduced the loss of body mass”; the “recovery of body weight following BoNT/A” value is reported as “significantly enhanced recovery of body weight”. For the same molecule, in data set [5], the “Muscle Strength (%) ± SEM” value worked out at 100% and the motor strength entry is “retained normal motor strength”. In [2], the “amplitude of endplate currents (EPCs)” value was “reduced this action of BoNT/A”, the “endplate potentials (EPPs) in response to 70 Hz nerve stimulation” value is listed as “did not fail” and the “inhibitory effect of BoNT/A on mean EPC amplitude” value is listed as “reduced the inhibitory effect of BoNT/A”. Besides, in the data set on Neuro 2a cells [6], the FM1-43 labeling result is “equivalent to control” and the “protective effect of capsaicin on FM1-43 uptake” value is “did not occur”. In addition, the “expression of TRPV1” value in the data set on TRPV1 is listed as “did not affect”. Also, in the data set on motor nerve terminals, the “exocytosis-induced uptake of BoNT/A into motor nerve terminals” value was “prevented” and the “reduction of BoNT/A uptake into motor nerve terminals by capsaicin” value is “prevented by removal of extracellular Ca^2+”. Further, in the data set with Neuro 2a cells [7], the “BoNT/A uptake into Neuro 2a cells” value is “reduced” and the “reduction of BoNT/A uptake into Neuro 2a cells by capsaicin” value was “prevented by removal of extracellular Ca^2+”. Besides, in data set [8], the “cessation of grooming behavior after BoNT/A” value is reported as “reduced”. In data set [9] (mouse, in vivo), the “CMAP amplitude compared to BoNT/A alone treated mice” value is “significantly greater”; the “fold recovery of CMAP from week 1 to week 7” value is recorded as “approximately 18 fold”; the “muscle strength, body weight, CMAP amplitude and performance on the rotor rod” value is “normal”. Besides, in [9] (n=4), the CMAP amplitude was 4.6±0.92 mV and 6.7±1.24 mV and 7.6±1.12 mV. For the same molecule, the “force generation or amplitude of stimulus evoked endplate currents (EPC)” value in data set [10] is given as “no effect”. Moreover, in data set [10] (n=4), the “mean nerve-evoked twitch tension” value worked out at 500 ± 100 mg.
